Source: patent publication US5922719A, “Coumarin dopamine D4 receptor antagonists” (priority 1997, dated 1999)
Where a name gives a salt, the structure may show the parent alone. Read-outs that look alike come from different tables or passages of the source.

What was measured:
[1] = molecular target: T1, human recombinant dopamine D4.2 receptor (Homo sapiens, UniProt P21917, DEL265-296); assay: [3H]spiperone receptor binding assay, D4.2 (CHO K1 membranes); settings: [3H]spiperone 0.2 nM, human D4.2, CHO K1 membranes, 60 minutes at 25° C.
T1 construct: expressed in transfected cells
T1 sequence (P21917 with tags, fused parts or gaps DEL265-296): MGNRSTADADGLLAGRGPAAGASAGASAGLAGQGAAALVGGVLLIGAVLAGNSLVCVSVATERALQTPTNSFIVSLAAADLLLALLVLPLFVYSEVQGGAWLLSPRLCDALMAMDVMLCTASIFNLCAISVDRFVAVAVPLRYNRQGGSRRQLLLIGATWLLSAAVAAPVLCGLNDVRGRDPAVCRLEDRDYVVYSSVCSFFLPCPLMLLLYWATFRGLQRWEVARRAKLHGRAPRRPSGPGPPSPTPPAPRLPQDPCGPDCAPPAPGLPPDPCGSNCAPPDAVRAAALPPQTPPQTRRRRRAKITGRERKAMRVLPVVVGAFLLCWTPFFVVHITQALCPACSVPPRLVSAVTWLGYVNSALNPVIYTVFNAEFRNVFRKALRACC
Text: (§1) A cell line expressing human dopamine D2 (Long form) receptors was purchased from Oregon Health Sciences University, Portland, Ore. The D2 receptor cDNA was subcloned into an expression vector, pRc/CMV. The plasmids were transfected by electroporation into CHO K1 cells. A single stable transfectant, resistant to the antibiotic G418, was isolated and selected for use in the binding studies. For D4 binding, CHO K1 cells stably transfected to express the human recombinant dopamine D4.2 receptor subtype, as described by Shih, et al., "The expression and functional characterization of human dopamine D4.2 receptor in CHO K1 cells," Soc.
(§2) Cells were grown until confluent, after which growth medium was removed and replaced with 0.02% ethylene diamine tetracetate (EDTA) in a phosphate-buffered saline solution (Sigma Chemical Co; St. Louis, Mo.) and scraped from the flasks. The cells were centrifuged at about 1000×g for 10 minutes at 40° C. and then resuspended in TEM buffer (25 mM Tris-HCL, pH 7.4, 5 mM EDTA, and 6 mM MgCl2) for D2 or the D4.2 buffer (50 mM Tris-HCl, pH 7.4, 5 mM EDTA, 1.5 mM CaCl2, 5 mM KCl, and 120 mM NaCl) and homogenized. The membranes were pelleted by centrifugation at 20,000×g at 40° C. for 20 minutes. Then the pellets were resuspended in an appropriate buffer at 1 mL/flask and stored at -70° C. until used in the receptor binding assay.
After 60 minutes incubation at 25° C., the incubations were terminated by rapid filtration through Whatmann GF/B glass fibre filters (soaked for 1 hour in 0.5% polyethylenimine) on a -cell harvester, with three washes of 1 mL ice-cold buffer. […] Nonspecific binding was defined in presence of 1 mM of haloperidol.
(§3) Saturation and competition binding data were analyzed using an iterative nonlinear least-square curve-fitting Ligand program. […] Experimental compounds were made up as stock solutions in dimethyl sulfoxide (DMSO). […] Each observation was carried out in triplicate. To allow these calculations, Kd values were measured for the interaction of various ligands with the receptor. […]

[2] = molecular target: human dopamine D2 (Long form) receptor (Homo sapiens, UniProt P14416); assay: [3H]spiperone receptor binding assay, D2 (Long form) (CHO K1 membranes); settings: [3H]spiperone 0.2 nM, human D2 (Long form), CHO K1 membranes, 60 minutes at 25° C.; read-out: D2 Ki
Text: as §1, with “Soc. Neurosci., 1995;21(Part 1):621.” for “Soc.”
as §2, with “CHO K1 cells expressing either human D2 and D4.2 receptors were grown in 162 cm^2 culture flasks in F12 medium (Gibco Laboratories, Grand Island, N.Y.) supplemented with 10% fetal bovine serum (FBS, Hyclone, Logan, UT) in an atmosphere of 5% Co2 /95% air at 37° C. Cells” for “Cells”
After 60 minutes incubation at 25° C., the incubations were terminated by rapid filtration through Whatmann GF/B glass fibre filters (soaked for 1 hour in 0.5% polyethylenimine) on a -cell harvester, with three washes of 1 mL ice-cold buffer. Individual filter disks containing the bound ligand were placed in counting vials with 4 mL of scintillation fluid (Ready Gel, Beckman Instrument Inc, Fullerton, Calif.) and then counted in a Beckman LS-6800 liquid scintillation counter at an efficiency of 45%. Nonspecific binding was defined in presence of 1 mM of haloperidol.
as §3

Chain of human dopamine D2 (Long form) receptor (P14416 whole entry): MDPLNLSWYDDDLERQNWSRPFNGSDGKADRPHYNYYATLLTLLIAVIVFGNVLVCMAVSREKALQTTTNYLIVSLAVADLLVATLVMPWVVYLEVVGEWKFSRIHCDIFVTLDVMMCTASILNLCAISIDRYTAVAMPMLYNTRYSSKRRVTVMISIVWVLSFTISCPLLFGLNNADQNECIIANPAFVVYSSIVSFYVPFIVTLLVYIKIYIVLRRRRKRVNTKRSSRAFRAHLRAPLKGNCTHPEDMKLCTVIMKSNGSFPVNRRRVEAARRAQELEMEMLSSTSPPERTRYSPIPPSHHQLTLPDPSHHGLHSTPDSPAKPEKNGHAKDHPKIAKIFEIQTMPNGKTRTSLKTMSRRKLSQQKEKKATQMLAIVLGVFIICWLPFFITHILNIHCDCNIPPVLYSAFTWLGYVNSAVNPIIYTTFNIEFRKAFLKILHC

Row | Structure (SMILES) | Ki [2] [µM] | Ki ([1]; read-out: D4 Ki) [nM] | Ki ([1]; D4 Ki) [nM]
1 | Cc1cccc(N2CCN(Cc3ccc4ccc(=O)oc4c3)CC2)c1 [Example 17, 7-(4-m-Tolyl-piperazin-1-ylmethyl)-chromen-2-one] | 4.4 | – | 32
2 | O=c1ccc2ccc(CN3CCN(c4ccccc4F)CC3)cc2o1 [Example 18, 7-[4-(2-Fluoro-phenyl)-piperazin-1-ylmethyl]-chromen-2-one] | 1 | 33 | –
3 | Cc1cccc(N2CCN(Cc3ccc4ccc(=O)oc4c3)CC2)c1Cl [Example 20, 7-[4-(2-Chloro-3-methyl-phenyl)-piperazin-1-ylmethyl]-chromen-2-one] | 5.88 | 40 | –
4 | O=c1ccc2ccc(CN3CCN(c4cccc(Cl)c4Cl)CC3)cc2o1 [Example 21, 7-[4-(2,3-Dichloro-phenyl)-piperazin-1-ylmethyl]-chromen-2-one] | 1.84 | 41.1 | –
5 | O=c1ccc2ccc(CN3CCN(c4ccccn4)CC3)cc2o1 [Example 25, 2H-1-Benzopyran-2-one, 7-[[4-(2-pyridinyl)-1-piperazinyl]methyl]-, dihydrochloride] | > 5.88 | 68.2 | –
6 | Cc1cccc(N2CCN(Cc3ccc4oc(=O)ccc4c3)CC2)c1C [Example 35, 6-[4-(2,3-Dimethyl-phenyl)-piperazin-1-ylmethyl]-chromen-2-one] | 3.25 | 8.8 | –
7 | Cc1ccc(N2CCN(Cc3ccc4oc(=O)ccc4c3)CC2)cc1 [Example 36, 6-(4-p-Tolyl-piperazin-1-ylmethyl)-chromen-2-one] | 5.83 | – | 10.9
8 | O=c1ccc2cc(CN3CCN(c4ccc(CO)c(Br)c4)CC3)ccc2o1 [Example 37, 6-[4-(3-Bromo-4-hydroxymethyl-phenyl)-piperazin-1-ylmethyl]-chromen-2-one] | 2.98 | 12.6 | –
9 | O=c1ccc2cc(CN3CCN(c4ccccn4)CC3)ccc2o1 [Example 44, 2H-1-Benzopyran-2-one, 6-[[4-(2-pyridinyl)-1-piperazinyl]methyl]-, dihydrochloride] | 2.17 | 29.7 | –

The next lines start with results.

Row | Ki [2] [µM] | Ki ([1]; read-out: D4 Ki) [nM] | Structure (SMILES) | Ki ([1]; D4 Ki) [nM]
10 | 4.02 | 44 | O=c1ccc2ccc(CN3CCN(c4cccc(F)c4)CC3)cc2o1 [Example 22, 7-[4-(3-Fluoro-phenyl)-piperazin-1-ylmethyl]-chromen-2-one] | –
11 | 7.29 | 13 | O=c1ccc2cc(CN3CCN(c4ccc(CO)c(Cl)c4)CC3)ccc2o1 [Example 38, 6-[4-(3-Chloro-4-hydroxymethyl-phenyl)-piperazin-1-ylmethyl]-chromen-2-one] | –
12 | 1.2 | 15 | O=c1ccc2cc(CN3CCN(c4cccc(Cl)c4Cl)CC3)ccc2o1 [Example 39, 6-[4-(2,3-Dichloro-phenyl)-piperazin-1-ylmethyl]-chromen-2-one] | –
13 | > 5.88 | 18 | O=c1ccc2cc(CN3CCN(c4ccc(CO)c(F)c4)CC3)ccc2o1 [Example 40, 6-[4-(3-Fluoro-4-hydroxymethyl-phenyl)-piperazin-1-ylmethyl]-chromen-2-one] | –
14 | 3.32 | 19.4 | O=c1ccc2cc(CN3CCN(c4cccc(Cl)c4)CC3)ccc2o1 [Example 41, 6-[4-(3-Chloro-phenyl)-piperazin-1-ylmethyl]-chromen-2-one] | –
15 | 0.218 | 28 | O=c1ccc2cc(CN3CCN(c4ccccc4Cl)CC3)ccc2o1 [Example 43, 6-[4-(2-Chloro-phenyl)-piperazin-1-ylmethyl]-chromen-2-one] | –
16 | 7.12 | 57 | COc1cccc(N2CCN(Cc3ccc4oc(=O)ccc4c3)CC2)c1 [Example 47, 6-[4-(3-Methoxy-phenyl)-piperazin-1-ylmethyl]-chromen-2-one] | –
